System: MV-4-11 cells
Assay: Gene expression microarray analysis (Affymetrix PrimeView) and GSEA
Assay type: cell-based, human
Design: RFU PODN (11730768_x_at) / Fold change /veh PODN (11730768_x_at) / RFU LINC00158 (11744669_a_at) / Fold change /veh LINC00158 (11744669_a_at) / RFU DUSP10 (11751237_a_at) / Fold change /veh DUSP10 (11751237_a_at) / RFU ID3 (11757404_x_at) / Fold change /veh ID3 (11757404_x_at) / RFU PLEKHG5 (11737974_s_at) / Fold change /veh PLEKHG5 (11737974_s_at) / RFU LRRC4B (11730491_at) / Fold change /veh LRRC4B (11730491_at) / RFU GIMAP4 (11747438_a_at) / Fold change /veh GIMAP4 (11747438_a_at) / RFU KRT8 (11758183_x_at) / Fold change /veh KRT8 (11758183_x_at) / RFU CNN1 (11734310_a_at) / Fold change /veh CNN1 (11734310_a_at) / RFU VPS37D (11726825_at) / Fold change /veh VPS37D (11726825_at) / RFU C10orf10 (11716522_x_at) / Fold change /veh C10orf10 (11716522_x_at) / RFU KIR2DL2 /// KIR2DL4 /// KIR2DL5A /// KIR2DL5B /// KIR2DS1 /// KIR2DS2 /// KIR2DS3 /// KIR2DS4 /// KIR3DL3 /// KIR3DL3 /// KIR3DS1 (11738374_at) / Fold change /veh KIR2DL2 /// KIR2DL4 /// KIR2DL5A /// KIR2DL5B /// KIR2DS1 /// KIR2DS2 /// KIR2DS3 /// KIR2DS4 /// KIR3DL3 /// KIR3DL3 /// KIR3DS1 (11738374_at) / RFU C1QL1 (11718748_at) / Fold change /veh C1QL1 (11718748_at) / RFU TMPRSS4 (11747572_a_at) / Fold change /veh TMPRSS4 (11747572_a_at) / RFU HAMP (11756126_x_at) / Fold change /veh HAMP (11756126_x_at) / RFU RNFT2 (11725882_a_at) / Fold change /veh RNFT2 (11725882_a_at) / RFU NR4A2 (11747474_a_at) / Fold change /veh NR4A2 (11747474_a_at) / RFU ABCC12 (11746883_a_at) / Fold change /veh ABCC12 (11746883_a_at) / RFU TMEM136 (11760407_x_at) / Fold change /veh TMEM136 (11760407_x_at) / RFU CLDN22 /// WWC2 (11732394_at) / Fold change /veh CLDN22 /// WWC2 (11732394_at) / RFU HLA-DPB1 (11760878_x_at) / Fold change /veh HLA-DPB1 (11760878_x_at) / RFU SPINT1 (11716480_a_at) / Fold change /veh SPINT1 (11716480_a_at) / RFU GAP43 (11754022_s_at) / Fold change /veh GAP43 (11754022_s_at) / RFU A4GNT (11735810_at) / Fold change /veh A4GNT (11735810_at) / RFU PRB3 (11715151_x_at) / Fold change /veh PRB3 (11715151_x_at) / RFU TUBB4B (11761932_at) / Fold change /veh TUBB4B (11761932_at) / RFU CAPN14 (11732068_a_at) / Fold change /veh CAPN14 (11732068_a_at) / RFU TMCC2 (11721928_a_at) / Fold change /veh TMCC2 (11721928_a_at) / RFU IRGQ (11745062_a_at) / Fold change /veh IRGQ (11745062_a_at) / RFU FAM174B (11720279_a_at) / Fold change /veh FAM174B (11720279_a_at) / RFU TMPRSS4 (11748680_a_at) / Fold change /veh TMPRSS4 (11748680_a_at) / RFU FAM212B (11763350_a_at) / Fold change /veh FAM212B (11763350_a_at) / RFU PLEKHG5 (11743358_a_at) / Fold change /veh PLEKHG5 (11743358_a_at) / RFU ZSCAN30 (11745921_a_at) / Fold change /veh ZSCAN30 (11745921_a_at) / RFU CMKLR1 (11741424_a_at) / Fold change /veh CMKLR1 (11741424_a_at) / RFU LOC101060620 /// MAPK8IP1 (11723275_at) / Fold change /veh LOC101060620 /// MAPK8IP1 (11723275_at) / RFU SPTSSB (11747773_x_at) / Fold change /veh SPTSSB (11747773_x_at) / RFU PRSS12 (11739890_at) / Fold change /veh PRSS12 (11739890_at) / RFU BIN1 (11741810_x_at) / Fold change /veh BIN1 (11741810_x_at) / RFU WNT11 (11732464_a_at) / Fold change /veh WNT11 (11732464_a_at) / RFU C10orf10 (11716521_a_at) / Fold change /veh C10orf10 (11716521_a_at) / RFU C5orf56 (11738089_at) / Fold change /veh C5orf56 (11738089_at) / RFU CYB561 (11721691_x_at) / Fold change /veh CYB561 (11721691_x_at) / RFU ANKRD19P (11752326_a_at) / Fold change /veh ANKRD19P (11752326_a_at) / RFU OR2T12 /// OR2T33 /// OR2T8 (11738714_s_at) / Fold change /veh OR2T12 /// OR2T33 /// OR2T8 (11738714_s_at) / RFU VCAN (11748164_a_at) / Fold change /veh VCAN (11748164_a_at) / RFU JSRP1 (11732532_at) / Fold change /veh JSRP1 (11732532_at) / RFU KRTAP10-11 (11738290_x_at) / Fold change /veh KRTAP10-11 (11738290_x_at) / RFU MYO3A (11730013_a_at) / Fold change /veh MYO3A (11730013_a_at) / RFU EBF3 (11725865_a_at) / Fold change /veh EBF3 (11725865_a_at) / RFU CAMK2N1 (11719241_x_at) / Fold change /veh CAMK2N1 (11719241_x_at) / RFU C5orf56 (11738088_a_at) / Fold change /veh C5orf56 (11738088_a_at) / RFU OLFML3 (11715873_a_at) / Fold change /veh OLFML3 (11715873_a_at) / RFU LOC100653217 /// NTM (11731650_a_at) / Fold change /veh LOC100653217 /// NTM (11731650_a_at) / RFU MAPK11 (11762145_a_at) / Fold change /veh MAPK11 (11762145_a_at) / RFU FIZ1 (11724087_x_at) / Fold change /veh FIZ1 (11724087_x_at) / RFU OASL (11726364_x_at) / Fold change /veh OASL (11726364_x_at) / RFU SOX15 (11748057_x_at) / Fold change /veh SOX15 (11748057_x_at) / RFU CD79A (11719716_a_at) / Fold change /veh CD79A (11719716_a_at) / RFU HIST1H1D (11736915_at) / Fold change /veh HIST1H1D (11736915_at) / RFU CASKIN2 (11723855_a_at) / Fold change /veh CASKIN2 (11723855_a_at) / RFU LOC730098 (11760151_x_at) / Fold change /veh LOC730098 (11760151_x_at) / RFU OR4N2 (11742367_at) / Fold change /veh OR4N2 (11742367_at) / RFU PRRT2 (11749266_a_at) / Fold change /veh PRRT2 (11749266_a_at) / RFU SNX32 (11753110_a_at) / Fold change /veh SNX32 (11753110_a_at) / RFU CDHR5 (11726645_a_at) / Fold change /veh CDHR5 (11726645_a_at) / RFU RCAN1 (11760418_a_at) / Fold change /veh RCAN1 (11760418_a_at) / RFU FAM167A (11723789_a_at) / Fold change /veh FAM167A (11723789_a_at) / RFU FAM26E (11764081_at) / Fold change /veh FAM26E (11764081_at) / RFU ISYNA1 (11749810_s_at) / Fold change /veh ISYNA1 (11749810_s_at) / RFU ACY1 (11761880_at) / Fold change /veh ACY1 (11761880_at) / RFU 11764098_at / Fold change /veh 11764098_at / RFU SAMD14 (11745864_x_at) / Fold change /veh SAMD14 (11745864_x_at) / RFU NPB (11741838_a_at) / Fold change /veh NPB (11741838_a_at) / RFU TMPRSS6 (11731388_a_at) / Fold change /veh TMPRSS6 (11731388_a_at) / RFU KRTAP10-2 (11738614_at) / Fold change /veh KRTAP10-2 (11738614_at) / RFU ARHGAP8 /// PRR5-ARHGAP8 (11727945_x_at) / Fold change /veh ARHGAP8 /// PRR5-ARHGAP8 (11727945_x_at) / RFU KRTAP5-7 /// NADSYN1 (11734609_at) / Fold change /veh KRTAP5-7 /// NADSYN1 (11734609_at) / RFU RASL12 (11751679_a_at) / Fold change /veh RASL12 (11751679_a_at) / RFU CDKN2B (11736163_a_at) / Fold change /veh CDKN2B (11736163_a_at) / RFU PRF1 (11729649_at) / Fold change /veh PRF1 (11729649_at) / RFU, ZNF638 /// ZNF638-IT1 / Fold change vs veh, ZNF638 /// ZNF638-IT1 / RFU, PANK3 / Fold change vs veh, PANK3 / RFU, SH3YL1 / Fold change vs veh, SH3YL1 / RFU, ZEB2 / Fold change vs veh, ZEB2 / RFU, NRIP1 / Fold change vs veh, NRIP1 / RFU, PTTG1IP / Fold change vs veh, PTTG1IP / RFU, CAPN2 / Fold change vs veh, CAPN2 / RFU, MED14 / Fold change vs veh, MED14 / RFU, SNORA58 / Fold change vs veh, SNORA58 / RFU, C1orf63 / Fold change vs veh, C1orf63 / RFU, LRRFIP1 / Fold change vs veh, LRRFIP1 / RFU, NDUFAF7 / Fold change vs veh, NDUFAF7 / RFU, SLC12A2 / Fold change vs veh, SLC12A2 / RFU, IBTK / Fold change vs veh, IBTK / RFU, ESF1 / Fold change vs veh, ESF1 / Fold change vs veh, TMEM50B / RFU, TAOK1 / Fold change vs veh, TAOK1 / RFU, ACBD3 / Fold change vs veh, ACBD3 / RFU, TMA16 / Fold change vs veh, TMA16 / RFU, RWDD3 / Fold change vs veh, RWDD3 / RFU, BCAT1 / Fold change vs veh, BCAT1 / RFU, EDEM3 / Fold change vs veh, EDEM3 / RFU, TMEM33 / Fold change vs veh, TMEM33 / RFU, WDR75 / Fold change vs veh, WDR75 / RFU, AHCTF1 / Fold change vs veh, AHCTF1 / RFU, TFRC / Fold change vs veh, TFRC / RFU, ZDHHC17 / Fold change vs veh, ZDHHC17 / RFU, NOM1 / Fold change vs veh, NOM1 / RFU, ARL8B / Fold change vs veh, ARL8B / RFU, ZBTB11 / Fold change vs veh, ZBTB11 / RFU, TAMM41 / Fold change vs veh, TAMM41 / RFU, KIAA1704 /// LOC100996395 / Fold change vs veh, KIAA1704 /// LOC100996395 / RFU, ING1 / Fold change vs veh, ING1 / RFU, TRMT61B / Fold change vs veh, TRMT61B / RFU, FUBP3 / Fold change vs veh, FUBP3 / RFU, TP53 / Fold change vs veh, TP53 / RFU, TNKS2 / Fold change vs veh, TNKS2 / RFU, ZFP14 / Fold change vs veh, ZFP14 / RFU, ACTR2 / Fold change vs veh, ACTR2 / RFU, PPP3R1 / Fold change vs veh, PPP3R1 / RFU, PIK3R1 / Fold change vs veh, PIK3R1 / RFU, HNRNPA1 / Fold change vs veh, HNRNPA1 / RFU, RNF170 / Fold change vs veh, RNF170 / RFU, ZNF28 / Fold change vs veh, ZNF28 / RFU, RNGTT / Fold change vs veh, RNGTT / RFU, OGT / Fold change vs veh, OGT / RFU, BRD1 / Fold change vs veh, BRD1 / RFU, MARS / Fold change vs veh, MARS / RFU, ZNF655 / Fold change vs veh, ZNF655 / RFU, FAHD1 / Fold change vs veh, FAHD1 / RFU, BDP1 / Fold change vs veh, BDP1 / RFU, LRRCC1 / Fold change vs veh, LRRCC1 / RFU, ARID1A / Fold change vs veh, ARID1A / RFU, ZNF146 / Fold change vs veh, ZNF146 / RFU, ZNF330 / Fold change vs veh, ZNF330 / RFU, GPN3 / Fold change vs veh, GPN3 / RFU, C9orf123 / Fold change vs veh, C9orf123 / RFU, N4BP2L2 / Fold change vs veh, N4BP2L2 / RFU, ARFIP1 / Fold change vs veh, ARFIP1 / RFU, FAM179B / Fold change vs veh, FAM179B / RFU, BCL10 / Fold change vs veh, BCL10 / RFU, UHRF1BP1L / Fold change vs veh, UHRF1BP1L / RFU, BET1 / Fold change vs veh, BET1 / RFU, CNOT2 / Fold change vs veh, CNOT2 / RFU, ZNF268 / Fold change vs veh, ZNF268 / Fold change vs veh, ZNF507 / RFU, DGCR2 / Fold change vs veh, DGCR2 / RFU, WDSUB1 / Fold change vs veh, WDSUB1 / Fold change vs veh, HSP90B1 /// MIR3652 / RFU, ADSS / Fold change vs veh, ADSS / RFU, GK / Fold change vs veh, GK / RFU, ZNF148 / Fold change vs veh, ZNF148 / RFU, TAF9 / Fold change vs veh, TAF9 / RFU, SLC1A5 / Fold change vs veh, SLC1A5 / RFU, SLMO2 / Fold change vs veh, SLMO2 / RFU, ABCC4 / Fold change vs veh, ABCC4 / RFU, LOC101060439 /// RAP1B / Fold change vs veh, LOC101060439 /// RAP1B / RFU, RFX7 / Fold change vs veh, RFX7 / RFU, GTPBP10 / Fold change vs veh, GTPBP10 / RFU, CNEP1R1 / Fold change vs veh, CNEP1R1 / RFU, BIVM-ERCC5 /// ERCC5 / Fold change vs veh, BIVM-ERCC5 /// ERCC5 / RFU, ILF3 / Fold change vs veh, ILF3 / RFU 11762660_at / Fold change /veh 11762660_at / RFU VCAN (11757783_s_at) / Fold change /veh VCAN (11757783_s_at) / RFU DDX43 (11728927_at) / Fold change /veh DDX43 (11728927_at) / RFU KRT8 (11758188_x_at) / Fold change /veh KRT8 (11758188_x_at) / RFU NKD1 (11759106_at) / Fold change /veh NKD1 (11759106_at) / RFU SRD5A1 (11742802_a_at) / Fold change /veh SRD5A1 (11742802_a_at) / RFU TPSAB1 /// TPSB2 (11721975_s_at) / Fold change /veh TPSAB1 /// TPSB2 (11721975_s_at) / RFU GSTM3 (11746129_a_at) / Fold change /veh GSTM3 (11746129_a_at) / RFU IL23R (11737362_x_at) / Fold change /veh IL23R (11737362_x_at) / RFU TMEM51 (11727254_a_at) / Fold change /veh TMEM51 (11727254_a_at) / RFU PIWIL2 (11732686_x_at) / Fold change /veh PIWIL2 (11732686_x_at) / RFU ORM1 (11744905_x_at) / Fold change /veh ORM1 (11744905_x_at) / RFU CCDC152 (11743942_at) / Fold change /veh CCDC152 (11743942_at) / RFU ECM1 (11717891_a_at) / Fold change /veh ECM1 (11717891_a_at) / RFU IL23R (11748794_a_at) / Fold change /veh IL23R (11748794_a_at) / RFU TNFAIP8L3 (11732012_x_at) / Fold change /veh TNFAIP8L3 (11732012_x_at) / RFU MBOAT4 (11741988_at) / Fold change /veh MBOAT4 (11741988_at) / RFU 11764193_at / Fold change /veh 11764193_at / RFU TMEM53 (11763286_at) / Fold change /veh TMEM53 (11763286_at) / RFU MAGEB2 (11727129_at) / Fold change /veh MAGEB2 (11727129_at) / RFU TMEM200A (11744735_a_at) / Fold change /veh TMEM200A (11744735_a_at) / RFU CCDC152 (11751479_a_at) / Fold change /veh CCDC152 (11751479_a_at) / RFU FAM211A (11726209_a_at) / Fold change /veh FAM211A (11726209_a_at) / RFU RGS16 (11746705_a_at) / Fold change /veh RGS16 (11746705_a_at) / RFU VCAN (11755009_s_at) / Fold change /veh VCAN (11755009_s_at) / RFU RHOB (11743442_s_at) / Fold change /veh RHOB (11743442_s_at) / RFU RGS16 (11720943_a_at) / Fold change /veh RGS16 (11720943_a_at) / RFU RGS16 (11720944_at) / Fold change /veh RGS16 (11720944_at) / RFU, VPS4B / Fold change vs veh, VPS4B / RFU, CREB1 / Fold change vs veh, CREB1 / RFU, DNAJC13 / Fold change vs veh, DNAJC13 / RFU, GNAQ / Fold change vs veh, GNAQ / RFU, CDK5R1 / Fold change vs veh, CDK5R1 / RFU, ZRANB3 / Fold change vs veh, ZRANB3 / RFU, CUL4A / Fold change vs veh, CUL4A / RFU, CCNY / Fold change vs veh, CCNY / RFU, UFL1 / Fold change vs veh, UFL1 / RFU, COG3 / Fold change vs veh, COG3 / RFU, DIAPH2 / Fold change vs veh, DIAPH2 / RFU, SKA2 / Fold change vs veh, SKA2 / RFU, AFF3 / Fold change vs veh, AFF3 / RFU, LMF1 / Fold change vs veh, LMF1 / RFU, IPO11 / Fold change vs veh, IPO11 / RFU, DFFB / Fold change vs veh, DFFB / RFU, FOXP1 / Fold change vs veh, FOXP1 / RFU, CARD8 / Fold change vs veh, CARD8 / RFU, STRN3 / Fold change vs veh, STRN3 / RFU, ADK / Fold change vs veh, ADK / RFU, RASSF2 / Fold change vs veh, RASSF2 / RFU, WIPF1 / Fold change vs veh, WIPF1 / RFU, LARP1B / Fold change vs veh, LARP1B / RFU, RASA1 / Fold change vs veh, RASA1 / RFU, RB1 / Fold change vs veh, RB1 / RFU, PPFIA1 / Fold change vs veh, PPFIA1 / RFU, MAT2A / Fold change vs veh, MAT2A / RFU, CCT5 / Fold change vs veh, CCT5 / RFU, WDR92 / Fold change vs veh, WDR92 / RFU, CUX1 / Fold change vs veh, CUX1 / RFU, TTC7A / Fold change vs veh, TTC7A / RFU, TMEM135 / Fold change vs veh, TMEM135 / RFU, DEPTOR / Fold change vs veh, DEPTOR / RFU, CPM / Fold change vs veh, CPM / RFU, DNAJB6 / Fold change vs veh, DNAJB6 / RFU, CACNA2D3 / Fold change vs veh, CACNA2D3 / RFU, DTX4 / Fold change vs veh, DTX4 / RFU, TFCP2 / Fold change vs veh, TFCP2 / RFU, GMCL1 /// GMCL1P1 / Fold change vs veh, GMCL1 /// GMCL1P1 / RFU, AEBP2 / Fold change vs veh, AEBP2 / RFU, SNHG1 /// SNORD22 /// SNORD25 /// SNORD26 /// SNORD27 /// SNORD28 /// SNORD29 /// SNORD31 / Fold change vs veh, SNHG1 /// SNORD22 /// SNORD25 /// SNORD26 /// SNORD27 /// SNORD28 /// SNORD29 /// SNORD31 / Fold change (Aza/veh), C12orf56 (ProbeSet 11735607_a_at) / Fold change (ACY-1035/veh), C12orf56 (ProbeSet 11735607_a_at) / Fold change (Aza/veh), FGFR1OP (ProbeSet 11751329_s_at) / Fold change (ACY-1035/veh), FGFR1OP (ProbeSet 11751329_s_at) / Fold change (Aza/veh), VPS36 (ProbeSet 11739960_a_at) / Fold change (ACY-1035/veh), VPS36 (ProbeSet 11739960_a_at) / RFU SYPL1 (11715823_x_at) / Fold change /veh SYPL1 (11715823_x_at) / RFU IGFBP7 (11715501_s_at) / Fold change /veh IGFBP7 (11715501_s_at) / RFU REEP3 (11722064_at) / Fold change /veh REEP3 (11722064_at) / RFU IGLL1 (11728026_x_at) / Fold change /veh IGLL1 (11728026_x_at): dose or concentration left out as unconfirmed
Details: ProbeSet 11722302_a_at; LIST B

For `Nc1ccc(-c2cccs2)cc1NC(=O)c1ccc2c(c1)cc(C1CC1)n2CCN1CCOCC1` [ACY-1035], the “RFU, LRRFIP1” value was 143.54 RFU.

— paper PMC5218480 (PLoS ONE, 2017)
